According to ChEMBL document CHEMBL5143619, “Antimicrobial Prenylated Isoflavones from the Leaves of the Amazonian Medicinal Plant Vatairea guianensis Aubl” (J Nat Prod, 2022):

Key:
A-375 = assay: Cytotoxicity against human A-375 cells assessed as reduction in cell viability incubated for 24 hrs by CellTiter-Blue cell viability assay; type: functional, cell-based; conditions: A-375, 24 h
HCT-116 = assay: Cytotoxicity against human HCT-116 cells assessed as reduction in cell viability incubated for 24 hrs by CellTiter-Blue cell viability assay; type: functional, cell-based; conditions: HCT-116, 24 h
[1] = Cytotoxicity against human HaCaT cells assessed as reduction in cell viability incubated for 24 hrs by CellTiter-Blue cell viability assay; type: toxicity, cell-based
[2] = Selectivity index, ratio of IC50 for human HaCaT cells to IC50 for human A-375 cells; type: toxicity; conditions: read-out: Ratio IC50
[3] = Selectivity index, ratio of IC50 for human HaCaT cells to IC50 for human HCT-116 cells; type: toxicity; conditions: read-out: Ratio IC50
MDA-MB-231 = assay: Cytotoxicity against human MDA-MB-231 cells assessed as reduction in cell viability incubated for 24 hrs by CellTiter-Blue cell viability assay; type: functional, cell-based; conditions: MDA-MB-231, 24 h
[4] = Selectivity index, ratio of IC50 for human HaCaT cells to IC50 for human MDA-MB-231 cells; type: toxicity; conditions: read-out: Ratio IC50
Staphylococcus aureus = assay: Antibacterial activity against methicillin-resistant Staphylococcus aureus assessed as bacterial growth inhibition incubated for 5 hrs under shaking condition by resazurin dye based assay; type: functional, organism-based
Enterococcus faecium = assay: Antibacterial activity against Enterococcus faecium assessed as bacterial growth inhibition incubated for 5 hrs by bromocresol purple dye based assay; type: functional, organism-based
Candida albicans = assay: Antifungal activity against Candida albicans assessed as fungal growth inhibition incubated for 5 hrs under shaking condition by resazurin dye based assay; type: functional, organism-based
Cryptococcus neoformans = assay: Antifungal activity against Cryptococcus neoformans assessed as fungal growth inhibition incubated for 5 hrs by microplate reader analysis; type: functional, organism-based
Trichophyton rubrum = assay: Antifungal activity against Trichophyton rubrum assessed as fungal growth inhibition incubated for 72 hrs by microplate reader analysis; type: functional, organism-based
[5] = Selectivity index, ratio of IC50 for human HaCaT cells to IC50 for antibacterial activity against methicillin-resistant Staphylococcus aureus; type: toxicity; conditions: read-out: Ratio IC50
[6] = Selectivity index, ratio of IC50 for human HaCaT cells to IC50 for antibacterial activity against Enterococcus faecium; type: toxicity; conditions: read-out: Ratio IC50
[7] = Selectivity index, ratio of IC50 for human HaCaT cells to IC50 for antifungal activity against Candida albicans; type: toxicity; conditions: read-out: Ratio IC50
[8] = Selectivity index, ratio of IC50 for human HaCaT cells to IC50 for antifungal activity against Cryptococcus neoformans; type: toxicity; conditions: read-out: Ratio IC50
[9] = Selectivity index, ratio of IC50 for human HaCaT cells to IC50 for antifungal activity against Trichophyton rubrum; type: toxicity; conditions: read-out: Ratio IC50

Compound `CC(C)=CCc1c(O)cc(O)c2c(=O)c(-c3ccc(O)cc3)coc12` has an IC50 (A-375) of 88.5 µM, an IC50 (HCT-116) of 187 µM and an IC50 at 24 h [1] of 160 µM. The selectivity ratio [2] was 1.8 and the selectivity ratio [3] was 0.9.

Compound `COc1cc(-c2coc3c(CC=C(C)C)c(O)cc(O)c3c2=O)ccc1O` has an IC50 (A-375) of 58.2 µM, an IC50 (HCT-116) of 110 µM and an IC50 (MDA-MB-231) of 87.5 µM. For the same compound, the IC50 at 24 h [1] was 80.7 µM, the selectivity ratio [2] was 1.4 and the selectivity ratio [3] was 1.9. For the same compound, the selectivity ratio [4] was 1.5.

For `CC(C)(O)CCc1c(O)cc(O)c2c(=O)c(-c3ccc(O)cc3)coc12`, the IC50 (A-375) was 160 µM, the IC50 (HCT-116) was 222 µM and the IC50 (MDA-MB-231) was 154 µM. The IC50 at 24 h [1] was 135 µM, the selectivity ratio [2] was 0.8 and the selectivity ratio [3] was 1.4. It also gave a selectivity ratio [4] of 0.9.

`COc1ccc(-c2coc3c(CC=C(C)C)c(O)cc(O)c3c2=O)cc1O` gave an IC50 (Staphylococcus aureus) of 6.8 µM, an IC50 (Enterococcus faecium) of 12.8 µM and an IC50 (Candida albicans; Candida albicans, 5 h) of 26.9 µM. For the same compound, the IC50 (Cryptococcus neoformans) was 13.6 µM, the IC50 (Trichophyton rubrum) was 12.2 µM and the selectivity ratio [5] was 10.3. For the same compound, the selectivity ratio [6] was 5.5, the selectivity ratio [7] was 2.6 and the selectivity ratio [8] was 5.1. For the same compound, the selectivity ratio [9] was 5.7, the IC50 (A-375) was 58.4 µM and the IC50 (HCT-116) was 87.5 µM. The IC50 (MDA-MB-231) was 110 µM, the IC50 at 24 h [1] was 69.8 µM and the selectivity ratio [2] was 1.2. It also gave a selectivity ratio [3] of 0.8 and a selectivity ratio [4] of 0.6.

For `CC(C)(O)CCc1c(O)cc(O)c2c(=O)c(-c3ccc(O)c(O)c3)coc12`, the IC50 (Staphylococcus aureus) was 29.6 µM, the selectivity ratio [5] was 2.9 and the IC50 at 24 h [1] was 85.9 µM.

In the case of `COc1cc(-c2coc3c(CCC(C)(C)O)c(O)cc(O)c3c2=O)ccc1O`, the IC50 (Staphylococcus aureus) is reported as 37 µM, the IC50 (Enterococcus faecium) is reported as 80.6 µM and the selectivity ratio [5] is reported as 5.6. For the same compound, the selectivity ratio [6] was 2.6, the IC50 (A-375) was 250 µM and the IC50 (HCT-116) was 234 µM. It also gave an IC50 at 24 h [1] of 207 µM, a selectivity ratio [2] of 0.8 and a selectivity ratio [3] of 0.9.

For `COc1ccc(-c2coc3c(CCC(C)(C)O)c(O)cc(O)c3c2=O)cc1O`, the IC50 (Staphylococcus aureus) was 49 µM and the selectivity ratio [5] was > 5.5.

`C[C@@H]1[C@H](O)[C@@H](C)/C=C/C=C/C=C/C=C/C=C/C=C/C=C/[C@H](O[C@@H]2O[C@H](C)[C@@H](O)[C@H](N)[C@@H]2O)C[C@@H]2O[C@](O)(C[C@@H](O)C[C@@H](O)[C@H](O)CC[C@@H](O)C[C@@H](O)CC(=O)O[C@H]1C)C[C@H](O)[C@H]2C(=O)O` [AMPHOTERICIN B] gave an IC50 (Cryptococcus neoformans) of 0.2 µM.

Work on `CC1(C)S[C@@H]2[C@H](NC(=O)[C@H](N)c3ccccc3)C(=O)N2[C@H]1C(=O)O` [AMPICILLIN] yielded an IC50 (Enterococcus faecium) of 0.6 µM.

`O=C(N[C@H](CO)[C@H](O)c1ccc([N+](=O)[O-])cc1)C(Cl)Cl` [CHLORAMPHENICOL] gave an IC50 (Staphylococcus aureus) of 3.1 µM.

With `Clc1ccccc1C(c1ccccc1)(c1ccccc1)n1ccnc1` [CLOTRIMAZOLE] the IC50 (Trichophyton rubrum) was 0.3 µM.

In the case of `COc1cccc2c1C(=O)c1c(O)c3c(c(O)c1C2=O)C[C@@](O)(C(=O)CO)C[C@@H]3O[C@H]1C[C@H](N)[C@H](O)[C@H](C)O1` [DOXORUBICIN], the IC50 (A-375) is reported as 0.4 µM, the IC50 (HCT-116) is reported as 49.5 µM and the IC50 (MDA-MB-231) is reported as 25.8 µM. It also gave an IC50 at 24 h [1] of 50 µM.

NYSTATIN showed an IC50 (Candida albicans) of 1.3 µM.
